# Assay results reported in the supplement of paper PMC10307832.
# Columns and labels:
# Test in all cases: relative viability (nuclei count vs DMSO), 5 days (fraction); higher = more cells survive
# BMX-IN-1 + Foretinib = compound: C=CC(=O)Nc1cc(-n2c(=O)ccc3cnc4ccc(-c5ccc(NS(C)(=O)=O)cc5)cc4c32)ccc1C [BMX-IN-1] + COc1cc2c(Oc3ccc(NC(=O)C4(C(=O)Nc5ccc(F)cc5)CC4)cc3F)ccnc2cc1OCCCN1CCOCC1 [Foretinib] (partner 0.25 µM)
# Method in brief: (§1)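 Cells from lung cancer lines were seeded into 1536-well plates and, one day later, dosed by pin tool. Treatments were either a single drug or a fixed dose of an anchor drug with five library-drug doses (not always all listed) in √10 steps. After 5 days, nuclei were stained in a one-step fixation (final 0.05% Triton X-100, 1% formaldehyde, 1 ug/ml Hoechst) and counted on 4× images, and relative viability is the treated-to-vehicle nuclei ratio, as the median of duplicate plates.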
# PAC-1 + Alpelisib = compound: C=CCc1cccc(/C=N/NC(=O)CN2CCN(Cc3ccccc3)CC2)c1O [PAC-1] + Cc1nc(NC(=O)N2CCC[C@H]2C(N)=O)sc1-c1ccnc(C(C)(C)C(F)(F)F)c1 [Alpelisib] (partner 2 µM)
# Method in brief: as §1
# Ibrutinib + Olaparib = compound: C=CC(=O)N1CCC[C@@H](n2nc(-c3ccc(Oc4ccccc4)cc3)c3c(N)ncnc32)C1 [Ibrutinib] + O=C(c1cc(Cc2n[nH]c(=O)c3ccccc23)ccc1F)N1CCN(C(=O)C2CC2)CC1 [Olaparib] (partner 8 µM)
# Method in brief: as §1
# PAC-1 + Decitabine = compound: C=CCc1cccc(/C=N/NC(=O)CN2CCN(Cc3ccccc3)CC2)c1O [PAC-1] + Nc1ncn([C@H]2C[C@H](O)[C@@H](CO)O2)c(=O)n1 [Decitabine] (partner 2 µM)
# Method in brief: as §1
Cell Line,relative viability (BMX-IN-1 + Foretinib; first compound 0.02 µM),relative viability (BMX-IN-1 + Foretinib; first compound 0.2 µM),relative viability (BMX-IN-1 + Foretinib; first compound 0.6325 µM),relative viability (BMX-IN-1 + Foretinib; first compound 2 µM),relative viability (PAC-1 + Alpelisib; first compound 0.02 µM),relative viability (PAC-1 + Alpelisib; first compound 0.06325 µM),relative viability (PAC-1 + Alpelisib; first compound 0.2 µM),relative viability (PAC-1 + Alpelisib; first compound 2 µM),relative viability (Ibrutinib + Olaparib; first compound 0.005 µM),relative viability (Ibrutinib + Olaparib; first compound 0.01581 µM),relative viability (Ibrutinib + Olaparib; first compound 0.1581 µM),relative viability (Ibrutinib + Olaparib; first compound 0.5 µM),relative viability (PAC-1 + Decitabine; first compound 0.02 µM),relative viability (PAC-1 + Decitabine; first compound 0.06325 µM),relative viability (PAC-1 + Decitabine; first compound 0.2 µM),relative viability (PAC-1 + Decitabine; first compound 2 µM),relative viability (Ibrutinib + Olaparib; first compound 0.05 µM)
NCI-H358,0.855,0.777,0.887,0.701,0.811,0.836,0.924,0.572,0.469,0.508,0.747,0.248,0.229,0.219,0.209,0.16,
NCI-H441,1.26,1.05,1.14,0.876,0.629,0.671,0.679,0.57,0.794,0.728,0.768,0.567,0.256,0.258,0.171,0.23,0.652
NCI-H460,1.22,1.09,1.11,1.06,0.354,0.534,0.433,0.327,0.405,0.373,0.432,0.441,0.436,0.424,0.242,0.451,0.441
NCI-H520,0.825,0.879,0.864,0.825,0.704,0.979,0.927,0.925,0.417,0.334,0.298,0.35,0.465,0.513,0.328,0.548,0.377
NCI-H596,0.953,1.25,0.872,0.714,0.428,0.561,0.472,0.446,1.09,0.635,0.668,0.723,0.915,1,0.93,0.942,0.68
NCI-H647,1.32,1.58,1.14,1.21,0.995,1.08,1.14,0.709,0.638,0.387,0.57,0.637,0.358,0.403,0.328,0.321,0.62
NCI-H650,1.06,1.01,1.12,1.1,1.09,1.23,1.23,1.17,0.423,0.432,0.506,0.459,0.307,0.331,0.298,0.45,0.385
NCI-H661,1.16,0.961,1.11,1.02,0.581,0.56,0.671,0.687,0.716,0.706,0.773,0.579,0.526,0.53,0.439,0.506,0.719
NCI-H727,1.37,0.933,0.893,1.01,0.646,0.648,0.527,0.561,0.736,0.817,0.792,0.688,0.982,0.809,0.772,0.98,0.659
NCI-H838,1.3,1.25,1.24,0.982,1.07,1.01,0.962,1.04,0.794,0.693,0.866,0.825,0.425,0.45,0.462,0.445,0.849
NCI-H1355,1.1,1.15,0.921,0.977,0.861,0.809,0.753,0.822,,0.664,0.73,0.661,0.32,0.363,0.335,0.373,0.77
NCI-H1395,1.1,0.968,0.949,0.908,1.19,1.02,1.02,1.02,0.475,0.472,0.468,0.449,0.741,0.685,0.632,0.712,0.469
NCI-H1437,1.34,1.27,1.31,1.32,0.953,0.932,0.906,0.716,0.681,0.626,0.641,0.628,0.568,0.587,0.583,0.537,0.721
NCI-H1651,1,0.907,0.909,0.773,0.917,1.12,0.848,0.867,0.193,0.183,0.176,0.185,0.649,0.552,0.39,0.675,0.173
NCI-H1666,0.959,1.04,1.03,0.935,0.917,0.971,1.06,0.993,0.844,0.672,0.694,0.703,0.721,0.763,0.713,0.713,0.772
NCI-H1734,1.01,0.954,1.08,0.796,0.662,0.664,0.748,0.642,0.57,0.629,0.67,0.592,0.52,0.554,0.37,0.462,0.788
NCI-H1755,0.833,0.891,1.05,0.905,0.925,0.918,0.865,0.826,0.921,0.886,0.926,0.894,0.764,0.712,0.675,0.732,0.88
NCI-H1793,0.856,0.856,0.656,0.699,0.681,0.615,0.894,0.621,0.669,0.562,0.833,0.4,0.48,0.589,0.396,0.542,0.582
NCI-H1915,1.16,1.25,1.12,1.07,1.04,1.08,0.991,1.02,0.283,0.256,0.281,0.241,0.266,0.253,0.245,0.27,0.257

Cell Line,relative viability (BMX-IN-1 + Foretinib; first compound 0.02 µM),relative viability (BMX-IN-1 + Foretinib; first compound 0.2 µM),relative viability (BMX-IN-1 + Foretinib; first compound 0.6325 µM),relative viability (BMX-IN-1 + Foretinib; first compound 2 µM),relative viability (PAC-1 + Alpelisib; first compound 0.02 µM),relative viability (PAC-1 + Alpelisib; first compound 0.06325 µM),relative viability (PAC-1 + Alpelisib; first compound 0.2 µM),relative viability (PAC-1 + Alpelisib; first compound 2 µM),relative viability (Ibrutinib + Olaparib; first compound 0.005 µM),relative viability (Ibrutinib + Olaparib; first compound 0.01581 µM),relative viability (Ibrutinib + Olaparib; first compound 0.1581 µM),relative viability (Ibrutinib + Olaparib; first compound 0.5 µM),relative viability (PAC-1 + Decitabine; first compound 0.02 µM),relative viability (PAC-1 + Decitabine; first compound 0.06325 µM),relative viability (PAC-1 + Decitabine; first compound 0.2 µM),relative viability (PAC-1 + Decitabine; first compound 2 µM),relative viability (Ibrutinib + Olaparib; first compound 0.05 µM)
NCI-H1944,0.972,0.83,0.976,0.905,0.78,0.849,0.813,0.752,0.411,0.404,0.387,0.359,0.435,0.459,0.466,0.456,0.413
NCI-H1975,0.938,1.08,1.01,0.93,0.597,0.678,0.621,0.642,0.886,0.775,0.802,0.482,0.413,0.408,0.333,0.388,0.688
NCI-H1993,0.882,0.816,0.731,0.755,0.701,0.645,0.678,0.672,0.849,0.939,1.15,0.836,0.737,0.58,0.595,0.541,1.36
NCI-H2009,1.38,1.26,1.24,1.28,1.1,1.13,1.13,1.15,0.754,0.671,0.802,0.738,0.377,0.339,0.316,0.354,0.771
NCI-H2023,0.928,1.12,1.06,0.926,0.576,0.592,0.654,0.673,0.492,0.528,0.516,0.542,0.216,0.217,0.182,0.182,0.457
NCI-H2085,0.978,0.847,0.763,0.804,0.949,0.944,0.921,0.916,0.764,0.735,0.749,0.748,0.554,0.504,0.572,0.492,0.736
NCI-H2087,1.25,1.12,1.37,1.26,1.07,1.02,1,1.1,0.602,0.715,,0.724,0.303,0.305,0.233,0.28,0.691
NCI-H2126,1.15,1.21,1.32,1.25,0.756,0.729,0.717,0.703,0.879,0.899,0.905,0.747,0.589,0.584,0.541,0.612,0.88
NCI-H2170,1.23,0.975,0.993,0.987,0.746,0.859,0.752,0.7,0.568,0.502,0.607,0.156,0.477,0.493,0.42,0.453,0.433
NCI-H2347,0.826,1.03,1.36,0.854,1.08,1.13,0.992,1.05,0.659,0.512,0.619,0.536,0.637,0.598,0.606,0.621,0.626
NCI-H2405,1.04,1.1,1.11,1.03,0.811,0.9,0.774,0.873,0.877,0.877,,0.953,0.759,0.821,0.707,0.765,
NCI-H3122,1,0.951,0.957,0.984,0.66,0.808,0.837,0.747,0.774,0.6,0.644,0.695,0.489,0.455,0.362,0.446,0.582
PC-3 [JPC-3],1.12,1.16,1.09,1,1,1.09,0.98,0.972,1.21,0.996,1.29,0.523,0.938,0.861,0.698,0.77,0.93
PC-14,1.04,1.05,1.16,0.922,0.989,0.856,0.938,0.962,0.369,0.318,0.286,0.265,0.214,0.235,0.172,0.221,0.37
RERF-LC-KJ,0.971,1.02,1.08,0.868,0.768,0.8,1.33,0.783,0.994,0.863,0.965,0.868,0.66,0.65,0.66,0.661,0.89
SK-LU-1,0.92,1.04,0.785,0.76,0.901,1,0.919,0.854,0.411,0.426,0.722,0.371,0.651,0.627,0.293,0.654,0.447
SW 1573,0.953,0.947,1.02,0.337,0.646,0.82,0.571,0.771,0.57,0.401,0.456,0.485,0.532,0.551,0.432,0.564,0.51
UMC-11,1.15,1.13,0.981,1.11,0.982,0.992,1.05,1.09,0.338,0.392,0.663,0.377,0.668,0.681,0.265,0.68,0.538
